Consider seven molecules from patent US12421238B2, “Selective dihydropyrrolopyrimidine JAK2 inhibitors” (CHENGDU JINRUI FOUNDATION BIOTECH CO., LTD., priority 2019, dated 2025).

pIC50: −log10 of the molar value.

Series [1] can be described thus: Pharmacokinetic test in SD rats, intragastric administration. The conditions noted are these: rat, po, single intragastric administration, 25 mg/kg, plasma; for Cmax: read-out: Blood concentration Cmax; for AUC(0-t): read-out: Curve area AUClast; for half-life: read-out: Half life t1/2 (converted); for Tmax: read-out: Time to peak Tmax. Format: in vivo. On the procedure: SD rats were used as the test animals.
Standard curve and preparation and processing of quality control samples:
Stock solution was diluted with 50% acetonitrile/water solution to obtain standard working solutions of 0.04, 0.10, 0.20, 0.40, 1.00, 2.00, 4.00 μg/mL, and quality control working solutions of 0.10, 1.00, 3.00 μg/mL. 2.50 μL of standard curve working solutions and quality control working solutions were added to 47.5 μL of blank rat plasma, respectively, to obtain standard curve solutions having analyte concentrations of 2.00, 5.00, 10.00, 20.00, 50.00, 100.00, 200.00 ng/mL and quality control samples having concentrations of 5.00, 50.00, and 150.00 ng/mL. 200 μL of acetonitrile (containing 5 ng/mL of the internal standard loratadine) was added. After vortexing for 3 minutes, the solutions were centrifuged at 15000 rpm at 4° C. for 15 minutes. 100 μL of the supernatant was taken for LC-MS/MS analysis. WinNonlin® 8.0 was used to calculate the experimental results.

In a further series the target is T1, JAK3 (Homo sapiens, UniProt P52333).
T1 sequence (P52333 1-1124): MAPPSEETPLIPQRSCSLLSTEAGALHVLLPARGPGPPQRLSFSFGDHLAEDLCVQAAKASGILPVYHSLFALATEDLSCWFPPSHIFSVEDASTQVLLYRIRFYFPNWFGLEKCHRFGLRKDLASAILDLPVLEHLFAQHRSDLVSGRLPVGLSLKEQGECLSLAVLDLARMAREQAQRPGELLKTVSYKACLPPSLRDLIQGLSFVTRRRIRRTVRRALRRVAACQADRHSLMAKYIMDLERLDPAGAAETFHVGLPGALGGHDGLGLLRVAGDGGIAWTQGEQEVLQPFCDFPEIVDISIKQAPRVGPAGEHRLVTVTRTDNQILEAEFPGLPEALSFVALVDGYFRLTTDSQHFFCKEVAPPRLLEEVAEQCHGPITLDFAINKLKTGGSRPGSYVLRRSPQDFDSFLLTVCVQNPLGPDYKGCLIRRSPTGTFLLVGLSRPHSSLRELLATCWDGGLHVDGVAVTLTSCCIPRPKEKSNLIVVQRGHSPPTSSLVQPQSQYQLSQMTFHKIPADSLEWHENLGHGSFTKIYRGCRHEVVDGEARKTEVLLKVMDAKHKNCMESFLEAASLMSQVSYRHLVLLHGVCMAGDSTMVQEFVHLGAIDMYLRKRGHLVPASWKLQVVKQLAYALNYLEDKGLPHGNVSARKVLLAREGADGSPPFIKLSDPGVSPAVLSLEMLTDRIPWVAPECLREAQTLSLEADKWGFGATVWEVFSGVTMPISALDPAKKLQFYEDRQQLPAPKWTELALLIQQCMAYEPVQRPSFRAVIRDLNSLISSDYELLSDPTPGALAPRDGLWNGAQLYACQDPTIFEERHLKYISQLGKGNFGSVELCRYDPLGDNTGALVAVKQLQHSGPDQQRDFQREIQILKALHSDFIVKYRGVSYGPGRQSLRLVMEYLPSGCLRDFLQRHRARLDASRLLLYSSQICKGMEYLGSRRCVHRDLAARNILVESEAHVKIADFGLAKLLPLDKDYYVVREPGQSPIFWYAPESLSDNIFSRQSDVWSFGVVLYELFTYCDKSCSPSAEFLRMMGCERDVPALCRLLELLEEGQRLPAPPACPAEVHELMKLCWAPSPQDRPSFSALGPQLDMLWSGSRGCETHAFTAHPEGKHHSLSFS
The series is described as follows: Kinase activity test on JAK3 (Caliper EZ Reader conversion rate).

For the next series, the target named is JAK2 (Homo sapiens, UniProt O60674). The series can be described thus: Kinase activity test on JAK2 (Caliper EZ Reader conversion rate). The conditions noted are these: for JAK1/JAK2 / JAK3/JAK2: ratio of IC50 values; for JAK1/JAK2: selectivity for JAK2 over JAK1; for JAK3/JAK2: selectivity for JAK2 over JAK3.
Chain of JAK2 (O60674 whole entry): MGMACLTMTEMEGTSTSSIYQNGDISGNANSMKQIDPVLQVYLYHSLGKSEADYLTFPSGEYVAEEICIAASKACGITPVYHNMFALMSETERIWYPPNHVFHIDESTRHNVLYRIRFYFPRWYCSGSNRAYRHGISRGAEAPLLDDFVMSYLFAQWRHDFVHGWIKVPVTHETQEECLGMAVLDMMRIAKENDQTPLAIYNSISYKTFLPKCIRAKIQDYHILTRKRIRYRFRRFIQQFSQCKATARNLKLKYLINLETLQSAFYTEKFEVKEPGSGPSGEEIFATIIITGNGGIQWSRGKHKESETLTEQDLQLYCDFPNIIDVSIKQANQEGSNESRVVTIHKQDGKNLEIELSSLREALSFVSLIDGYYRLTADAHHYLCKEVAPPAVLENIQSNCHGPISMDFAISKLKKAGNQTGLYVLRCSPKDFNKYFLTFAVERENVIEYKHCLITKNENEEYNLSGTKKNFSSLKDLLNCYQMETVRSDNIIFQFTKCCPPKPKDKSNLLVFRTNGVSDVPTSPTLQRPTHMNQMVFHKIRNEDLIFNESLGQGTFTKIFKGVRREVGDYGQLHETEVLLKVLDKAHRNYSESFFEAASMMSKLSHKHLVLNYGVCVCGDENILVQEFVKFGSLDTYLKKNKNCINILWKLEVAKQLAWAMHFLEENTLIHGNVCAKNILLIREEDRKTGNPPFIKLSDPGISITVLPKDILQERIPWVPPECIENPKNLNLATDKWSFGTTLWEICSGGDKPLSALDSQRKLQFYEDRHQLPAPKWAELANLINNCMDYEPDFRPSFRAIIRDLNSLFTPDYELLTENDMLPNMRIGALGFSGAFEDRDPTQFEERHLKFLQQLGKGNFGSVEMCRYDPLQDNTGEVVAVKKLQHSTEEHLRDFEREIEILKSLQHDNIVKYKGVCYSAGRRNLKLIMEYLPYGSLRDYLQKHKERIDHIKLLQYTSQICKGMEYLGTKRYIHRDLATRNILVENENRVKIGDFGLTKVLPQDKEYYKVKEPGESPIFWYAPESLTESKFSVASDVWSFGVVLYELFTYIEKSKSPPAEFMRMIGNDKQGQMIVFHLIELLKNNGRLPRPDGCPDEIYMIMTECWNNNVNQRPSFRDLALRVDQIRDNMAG
The next series relates to HEL92.1.7. The series is described as follows: HEL92.1.7 cell proliferation experiment (Cell Titer-Glo). It counts as cell-based. The conditions noted are these: Homo sapiens, HEL 92.1.7; HEL92.1.7 cells, 72 hours. In general terms: In ATP-based viability assays light output follows the ATP content of the culture.
A short description of series [2]: Acute toxicity test, single oral administration to ICR mice (MTD). It counts as in vivo. The following applies: ICR, mouse, in vivo, po, read-out: MTD (maximum tolerated dose).
Another series relates to TF-1. The series can be described thus: TF-1 cell proliferation experiment (CellTiter Glo). The following applies: Homo sapiens; TF-1 cells, 72 hours; read-out: TF-1 (μM), proliferation inhibition. Format: cell-based.
A further series has as its target JAK1 (Homo sapiens, UniProt P23458). The series can be described thus: Kinase activity test on JAK1 (Caliper EZ Reader conversion rate).
The subject of another series is ICR mice. The series is described as follows: Acute toxicity test, single oral administration to ICR mice (MTD). It counts as in vivo.

Chain of JAK1 (P23458 whole entry): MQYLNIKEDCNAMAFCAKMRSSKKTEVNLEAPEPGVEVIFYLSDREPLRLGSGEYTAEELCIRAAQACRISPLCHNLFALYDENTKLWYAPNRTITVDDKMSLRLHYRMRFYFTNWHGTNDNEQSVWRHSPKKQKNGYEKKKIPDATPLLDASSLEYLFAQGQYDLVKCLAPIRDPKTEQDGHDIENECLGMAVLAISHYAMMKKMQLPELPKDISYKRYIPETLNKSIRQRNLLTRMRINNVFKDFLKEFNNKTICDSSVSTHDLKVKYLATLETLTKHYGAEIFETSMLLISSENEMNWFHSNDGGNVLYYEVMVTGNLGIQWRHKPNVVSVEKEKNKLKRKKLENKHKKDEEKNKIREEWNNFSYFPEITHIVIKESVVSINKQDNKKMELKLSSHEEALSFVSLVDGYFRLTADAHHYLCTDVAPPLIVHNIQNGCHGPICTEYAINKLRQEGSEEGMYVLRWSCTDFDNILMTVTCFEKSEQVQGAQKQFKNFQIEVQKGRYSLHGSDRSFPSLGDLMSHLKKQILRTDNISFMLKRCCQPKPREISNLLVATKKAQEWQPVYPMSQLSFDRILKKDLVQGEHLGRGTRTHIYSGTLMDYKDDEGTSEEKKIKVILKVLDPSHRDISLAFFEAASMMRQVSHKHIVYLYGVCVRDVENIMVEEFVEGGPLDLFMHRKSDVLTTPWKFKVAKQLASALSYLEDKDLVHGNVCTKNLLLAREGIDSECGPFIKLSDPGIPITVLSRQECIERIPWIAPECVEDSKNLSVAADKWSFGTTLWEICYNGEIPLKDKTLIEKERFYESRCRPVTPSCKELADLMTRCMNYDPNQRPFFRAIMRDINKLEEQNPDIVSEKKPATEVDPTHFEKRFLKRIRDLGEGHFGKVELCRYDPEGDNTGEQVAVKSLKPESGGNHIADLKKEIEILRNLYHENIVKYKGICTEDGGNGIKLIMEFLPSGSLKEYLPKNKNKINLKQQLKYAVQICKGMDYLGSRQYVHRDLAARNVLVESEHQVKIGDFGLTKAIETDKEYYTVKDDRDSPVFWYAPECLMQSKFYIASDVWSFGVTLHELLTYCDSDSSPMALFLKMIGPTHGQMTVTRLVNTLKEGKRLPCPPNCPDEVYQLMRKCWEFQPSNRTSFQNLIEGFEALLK

A word on the Tmax: it is the time from dosing to the highest level. The pIC50 is the negative decadic logarithm of the IC50, by convention in mol/L. Low readings indicate a large IC50, high ones a small IC50. What is called MTD is the largest dose that counted as tolerated. For the molecule `CC(C)(C)NS(=O)(=O)c1cccc(N2CCc3cnc(Nc4ccc(OCCN5CCCC5)cc4)nc32)c1` [Compound I-1], in series [1], the Cmax came out at 998 ng/mL, the AUC(0-t) was 798 ng·h/mL, the half-life was 5.8 h and the Tmax came to 1 h. This molecule also gave a pIC50 at JAK3 of 5.90. At JAK2, the pIC50 is 8.60, the JAK1/JAK2 came to 84 and the JAK3/JAK2 is 504. In addition, in the series with HEL92.1.7, the IC50 came to 0.23 µM. Also, in series [2], the MTD at 6 days is above 2000 mg/kg. In addition, the IC50 with TF-1 turned out to be 0.15 µM. The pIC50 against JAK1 is 6.68.
Consider `CC(C)(C)NS(=O)(=O)c1cccc(N2CCc3cnc(Nc4ccc(OCCN5CCNCC5)cc4)nc32)c1` [Compound I-2], for which, in series [1], the Cmax is 1020 ng/mL, the AUC(0-t) is 839 ng·h/mL, the half-life is 6 h and the time of peak concentration (Tmax) was determined as 1.5 h. The pIC50 against JAK3 was 6.01. Further, at JAK2, the pIC50 is 8.96, the JAK1/JAK2 is listed as 172 and the JAK3/JAK2 is reported as 891. The IC50 with HEL92.1.7 amounted to 0.3 µM. Further, in the series on ICR mice, the “MTD (maximum tolerated dose)” value is reported as 1500 mg/kg. Besides, the MTD at 6 days in series [2] was at least 1000 mg/kg. In addition, the IC50 with TF-1 worked out at 0.21 µM. Further, the negative-log IC50 (pIC50) against JAK1 is 6.72.
Turning to `CN1CCN(CCOc2ccc(Nc3ncc4c(n3)N(c3cccc(S(=O)(=O)NC(C)(C)C)c3)CC4)cc2)CC1` [Compound I-4], in series [1], the Cmax came out at 1100 ng/mL, the AUC(0-t) was determined as 807 ng·h/mL, the half-life is 6.2 h and the Tmax came to 1.5 h. For the same molecule, the negative logarithm of the IC50 (pIC50) on JAK3 was 5.99. For the same molecule, at JAK2, the pIC50 is 8.92, the JAK1/JAK2 is recorded as 87 and the JAK3/JAK2 was 850. In the series on HEL92.1.7, this molecule showed an IC50 of 0.34 µM. Also, the “MTD (maximum tolerated dose)” value in the series with ICR mice is 1000 mg/kg. In addition, in series [2], the MTD at 6 days was at least 1000 mg/kg. In addition, in the series on TF-1, the IC50 turned out to be 0.18 µM. In addition, the negative-log IC50 (pIC50) at JAK1 was 6.98.
With `CC(C)(C)NS(=O)(=O)c1cccc(N2CCc3cnc(Nc4ccc(CN5CCSCC5)cc4)nc32)c1` [Compound I-13], in series [1], the Cmax amounted to 979 ng/mL, the AUC(0-t) was determined as 955 ng·h/mL, the half-life was 5.5 h and the Tmax came out at 2 h. The molecule further had a pIC50 against JAK3 of 6.06. At JAK2, the negative-log IC50 (pIC50) is 9.00, the JAK1/JAK2 is 89 and the JAK3/JAK2 is 865. Moreover, in the series on HEL92.1.7, the IC50 turned out to be 0.31 µM. Besides, the MTD at 6 days in series [2] was at least 1000 mg/kg. Also, in the series on TF-1, the IC50 was 0.27 µM. The molecule further gave a negative logarithm of the IC50 (pIC50) against JAK1 of 7.05.
`CN1CCN(c2ccc(Nc3ncc4c(n3)N(c3cccc(S(=O)(=O)NC(C)(C)C)c3)CC4)cc2)CC1` [Compound I-15]: in series [1], the Cmax is 1240 ng/mL, the AUC(0-t) amounted to 934 ng·h/mL, the half-life is 6.8 h and the Tmax was determined as 1.5 h. On JAK3, this molecule had a pIC50 of 6.22. Also, on JAK2, the pIC50 was 9.14, the JAK1/JAK2 is recorded as 99 and the JAK3/JAK2 came out at 819. The IC50 in the series on HEL92.1.7 was 0.17 µM. Also, in the series with ICR mice, the “MTD (maximum tolerated dose)” value is reported as above 2000 mg/kg. Also, in series [2], the MTD at 6 days is above 2000 mg/kg. Besides, the IC50 in the series on TF-1 worked out at 0.12 µM. Besides, at JAK1, the negative logarithm of the IC50 (pIC50) was 7.14.
`CC(C)(C)NS(=O)(=O)c1cccc(N2CCc3cnc(Nc4ccc(OC5CCNCC5)cc4)nc32)c1` [Compound I-19]: in series [1], the Cmax came to 1120 ng/mL, the AUC(0-t) was 935 ng·h/mL, the half-life is 6.2 h and the time to peak (Tmax) was found to be 1.5 h. This molecule also showed a pIC50 against JAK3 of 5.82. Moreover, on JAK2, the negative-log IC50 (pIC50) was 9.05, the JAK1/JAK2 amounted to 134 and the JAK3/JAK2 was found to be 1689. The molecule also returned an IC50 with HEL92.1.7 of 0.21 µM. Moreover, the “MTD (maximum tolerated dose)” value in the series on ICR mice is 1500 mg/kg. In addition, in series [2], the MTD at 6 days is at least 1000 mg/kg. In the series on TF-1, the IC50 is 0.17 µM. The molecule also gave a pIC50 on JAK1 of 6.92.
`CC(C)(C)NS(=O)(=O)c1cccc(N2CCc3cnc(Nc4ccc(C5CCNCC5)cc4)nc32)c1` [Compound I-20]: in series [1], the Cmax was 1030 ng/mL, the AUC(0-t) worked out at 912 ng·h/mL, the half-life was 6.3 h and the Tmax is 2 h. Also, the pIC50 against JAK3 was 5.84. Besides, on JAK2, the pIC50 is 9.00, the JAK1/JAK2 is reported as 130 and the JAK3/JAK2 is 1433. In addition, the IC50 in the series on HEL92.1.7 stood at 0.25 µM. Further, the “MTD (maximum tolerated dose)” value in the series on ICR mice is above 2000 mg/kg. In addition, in series [2], the maximum tolerated dose (MTD) at 6 days was above 2000 mg/kg. Besides, the IC50 with TF-1 amounted to 0.19 µM. The molecule also gave a pIC50 against JAK1 of 6.89.
